Laboratory results reported in patent US20100160369A1, “S1P1 Agonists and Methods of Making And Using” (EXELIXIS, INC., priority 2008, published 2010).

Molecular target: S1P1 (Homo sapiens, UniProt P21453)
Assay: CNG cAMP Assay (Assay 1)
Format: cell-based
Design: host or cells: HEK293 cells expressing the CNG channel
Conditions: footnote 1: Relative EC50 was measured, read-out: Assay 1 Relative EC50
Method in brief: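 cAMP-gated CNG membrane-potential read-out (350/590 nm, T90/T0 ratio) in S1P1/CNG HEK293 cells after 90 min with compound plus NECA 500 nM, S1P 10 nM (EC95), Ro 20-1724 25 μM. Ten 3-fold points from 10 μM, 1.8% DMSO; percent activity vs NECA-only control gives EC50.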

S1P1, sequence (P21453 whole entry): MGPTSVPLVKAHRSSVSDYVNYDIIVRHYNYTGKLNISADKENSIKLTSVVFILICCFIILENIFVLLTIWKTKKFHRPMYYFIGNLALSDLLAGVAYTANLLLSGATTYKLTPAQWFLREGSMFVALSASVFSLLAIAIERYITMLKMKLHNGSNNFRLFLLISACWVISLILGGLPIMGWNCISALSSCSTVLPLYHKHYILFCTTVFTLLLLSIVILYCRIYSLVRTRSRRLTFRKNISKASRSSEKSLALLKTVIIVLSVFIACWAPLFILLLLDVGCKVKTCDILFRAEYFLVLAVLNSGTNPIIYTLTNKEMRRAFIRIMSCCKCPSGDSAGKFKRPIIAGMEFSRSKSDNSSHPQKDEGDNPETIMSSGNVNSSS

SMILES	EC50 [nM]
OCCN1CCC(Oc2ccc(-c3noc(-c4cn5cc(C(F)(F)F)cc(Cl)c5n4)n3)c(Cl)c2)C1 (centres unmarked) [Example 210, 2-{3-[(3-chloro-4-{5-[8-chloro-6-(trifluoromethyl)imidazo[1,2-a]pyridin-2-yl]-1,2,4-oxadiazol-3-yl}phenyl)oxy]pyrrolidin-1-yl}ethanol]	1000 to 5000
O=C(O)C1CN(Cc2ccc(-c3nc(-c4cn5cc(C(F)(F)F)cc(Cl)c5n4)no3)cc2)C1 [Example 231, 1-[(4-{3-[8-chloro-6-(trifluoromethyl)imidazo[1,2-a]pyridin-2-yl]-1,2,4-oxadiazol-5-yl}phenyl)methyl]azetidine-3-carboxylic acid]	5000 to 10000
CS(=O)(=O)Nc1c(F)cc(-c2nc(-c3cn4cc(C(F)(F)F)cc(Cl)c4n3)no2)cc1Cl [Example 236, N-(2-chloro-4-{3-[8-chloro-6-(trifluoromethyl)imidazo[1,2-a]pyridin-2-yl]-1,2,4-oxadiazol-5-yl}-6-fluorophenyl)methane sulfonamide]	5000 to 10000
Cc1cc(C2CC2C(=O)O)c(F)cc1-c1nc(-c2cn3cc(C(F)(F)F)cc(Cl)c3n2)no1 (centres unmarked) [Example 237, 2-(4-{3-[8-chloro-6-(trifluoromethyl)imidazo[1,2-a]pyridin-2-yl]-1,2,4-oxadiazol-5-yl}-2-fluoro-5-methylphenyl)cyclopropanecarboxylic acid]	5000 to 10000
CC(C)(Oc1ccc(-c2noc(-c3cn4cc(C(F)(F)F)cc(Cl)c4n3)n2)c(Cl)c1)C(=O)O [Example 254, 2-[(3-chloro-4-{5-[8-chloro-6-(trifluoromethyl)imidazo[1,2-a]pyridin-2-yl]-1,2,4-oxadiazol-3-yl}phenyl)oxy]-2-methylpropanoic acid]	5000 to 10000
CC(C)(CO)Oc1c(F)cc(-c2noc(-c3cn4cc(C(F)(F)F)cc(Cl)c4n3)n2)cc1Cl [Example 262, 2-[(2-chloro-4-{5-[8-chloro-6-(trifluoromethyl)imidazo[1,2-a]pyridin-2-yl]-1,2,4-oxadiazol-3-yl}-6-fluorophenyl)oxy]-2-methylpropan-1-ol]	1000 to 5000
CS(=O)(=O)Nc1c(F)cc(-c2noc(-c3cn4cc(C(F)(F)F)cc(Cl)c4n3)n2)cc1F [Example 265, N-(4-{5-[8-chloro-6-(trifluoromethyl)imidazo[1,2-a]pyridin-2-yl]-1,2,4-oxadiazol-3-yl}-2,6-difluorophenyl)methanesulfonamide]	500 to 1000

Same assay, conditions: read-out: Assay 1 EC50

SMILES	EC50 [nM]
O=C(O)C1CC1c1ccc(-c2noc(-c3cn4cc(C(F)(F)F)cc(Cl)c4n3)n2)cc1Cl (centres unmarked) [Example 215, 2-(2-chloro-4-{5-[8-chloro-6-(trifluoromethyl)imidazo[1,2-a]pyridin-2-yl]-1,2,4-oxadiazol-3-yl}phenyl)cyclopropanecarboxylic acid]	≤ 100
CC(CO)Oc1cc(Cl)c(-c2nc(-c3cn4cc(C(F)(F)F)cc(Cl)c4n3)no2)cc1F (centres unmarked) [Example 217, 2-[(5-chloro-4-{3-[8-chloro-6-(trifluoromethyl)imidazo[1,2-a]pyridin-2-yl]-1,2,4-oxadiazol-5-yl}-2-fluorophenyl)oxy]propan-1-ol]	≤ 100
CS(=O)(=O)Nc1ccc(-c2nnc(-c3cn4cc(C(F)(F)F)cc(Cl)c4n3)o2)c(Cl)c1 [Example 218, N-(3-chloro-4-{5-[8-chloro-6-(trifluoromethyl)imidazo[1,2-a]pyridin-2-yl]-1,3,4-oxadiazol-2-yl}phenyl)methanesulfonamide]	100 to 500
CC(CC(=O)O)c1ccc(-c2nnc(-c3cn4cc(C(F)(F)F)cc(Cl)c4n3)o2)c(Cl)c1 (centres unmarked) [Example 219, 3-(3-chloro-4-{5-[8-chloro-6-(trifluoromethyl)imidazo[1,2-a]pyridin-2-yl]-1,3,4-oxadiazol-2-yl}phenyl)butanoic acid]	≤ 100
NCC(O)COc1ccc(-c2noc(-c3cn4cc(C(F)(F)F)cc(Cl)c4n3)n2)c(Cl)c1 (centres unmarked) [Example 223, 1-amino-3-[(3-chloro-4-{5-[8-chloro-6-(trifluoromethyl)imidazo[1,2-a]pyridin-2-yl]-1,2,4-oxadiazol-3-yl}phenyl)oxy]propan-2-ol]	≤ 100
Fc1cccc(F)c1-c1nc(-c2cn3cc(C(F)(F)F)cc(Cl)c3n2)no1 [Example 228, 8-chloro-2-[5-(2,6-difluorophenyl)-1,2,4-oxadiazol-3-yl]-6-(trifluoromethyl)imidazo[1,2-a]pyridine]	100 to 500
FC(F)(F)c1cc(Cl)c2nc(-c3noc(-c4ccccc4Cl)n3)cn2c1 [Example 229, 8-chloro-2-[5-(2-chlorophenyl)-1,2,4-oxadiazol-3-yl]-6-(trifluoromethyl)imidazo[1,2-a]pyridine]	≤ 100
Fc1ccccc1-c1nc(-c2cn3cc(C(F)(F)F)cc(Cl)c3n2)no1 [Example 230, 8-chloro-2-[5-(2-fluorophenyl)-1,2,4-oxadiazol-3-yl]-6-(trifluoromethyl)imidazo[1,2-a]pyridine]	100 to 500
Fc1ccc(-c2nc(-c3cn4cc(C(F)(F)F)cc(Cl)c4n3)no2)c(Cl)c1 [Example 232, 8-chloro-2-[5-(2-chloro-4-fluorophenyl)-1,2,4-oxadiazol-3-yl]-6-(trifluoromethyl)imidazo[1,2-a]pyridine]	100 to 500
CS(=O)(=O)Nc1cc(Cl)c(-c2nc(-c3cn4cc(C(F)(F)F)cc(Cl)c4n3)no2)cc1F [Example 234, N-(5-chloro-4-{3-[8-chloro-6-(trifluoromethyl)imidazo[1,2-a]pyridin-2-yl]-1,2,4-oxadiazol-5-yl}-2-fluorophenyl)methanesulfonamide]	≤ 100
NCC(O)COc1cc(Cl)c(-c2nnc(-c3cn4cc(C(F)(F)F)cc(Cl)c4n3)s2)cc1F (centres unmarked) [Example 249, 1-amino-3-[(5-chloro-4-{5-[8-chloro-6-(trifluoromethyl)imidazo[1,2-a]pyridin-2-yl]-1,3,4-thiadiazol-2-yl}-2-fluorophenyl)oxy]propan-2-ol]	≤ 100
O=C(O)COc1ccc(-c2noc(-c3cn4cc(C(F)(F)F)cc(Cl)c4n3)n2)c(Cl)c1 [Example 253, [(3-chloro-4-{5-[8-chloro-6-(trifluoromethyl)imidazo[1,2-a]pyridin-2-yl]-1,2,4-oxadiazol-3-yl}phenyl)oxy]acetic acid]	100 to 500
CC(CN)Oc1ccc(-c2noc(-c3cn4cc(C(F)(F)F)cc(Cl)c4n3)n2)c(Cl)c1 (centres unmarked) [Example 258, 2-[(3-chloro-4-{5-[8-chloro-6-(trifluoromethyl)imidazo[1,2-a]pyridin-2-yl]-1,2,4-oxadiazol-3-yl}phenyl)oxy]propan-1-amine]	100 to 500
Oc1cc(Cl)c(-c2noc(-c3cn4cc(C(F)(F)F)cc(Cl)c4n3)n2)cc1F [Example 260, 5-chloro-4-{5-[8-chloro-6-(trifluoromethyl)imidazo[1,2-a]pyridin-2-yl]-1,2,4-oxadiazol-3-yl}-2-fluorophenol]	≤ 100
CC(CO)Oc1c(F)cc(-c2noc(-c3cn4cc(C(F)(F)F)cc(Cl)c4n3)n2)cc1Cl (centres unmarked) [Example 261, 2-[(2-chloro-4-{5-[8-chloro-6-(trifluoromethyl)imidazo[1,2-a]pyridin-2-yl]-1,2,4-oxadiazol-3-yl}-6-fluorophenyl)oxy]propan-1-ol]	≤ 100
Fc1cc(-c2noc(-c3cn4cc(C(F)(F)F)cc(Cl)c4n3)n2)c(Cl)cc1OC1CCNC1 (centres unmarked) [Example 264, 8-chloro-2-{3-[2-chloro-5-fluoro-4-(pyrrolidin-3-yloxy)phenyl]-1,2,4-oxadiazol-5-yl}-6-(trifluoromethyl)imidazo[1,2-a]pyridine]	≤ 100
